The text below walks through data of publication PMC6047675, “Neutral metalloaminopeptidases APN and MetAP2 as newly discovered anticancer molecular targets of actinomycin D and its simple analogs” (Oncotarget, 2018).

Where two headings read alike, the source gives them in different places. Starred links: 1 amine or outer side, 2 acyl side, 3 side chain; linkers in the order of their positions; H or OH if unused. Positions of bridges follow the written chain, without caps; N, C: chain ends. Non-standard residues stand in square brackets, D forms with d. Residues, ends and D or L forms follow the SMILES beside them. Chains are numbered I, II in the order given. Actinocin(1to9) = Cc1c2oc3c(C)ccc(C(=O)[*:2])c3nc-2c(C(=O)[*:1])c(N)c1=O; Actinocin(9to1) = Cc1c2oc3c(C)ccc(C(=O)[*:1])c3nc-2c(C(=O)[*:2])c(N)c1=O; Pro(4-oxo) = O=C1CN[C@H](C(=O)O)C1; NMeV = CN[C@H](C(=O)O)C(C)C; Sar = CNCC(=O)O

Series [1] deals with T1, human alanine aminopeptidase (HsAPN) (Homo sapiens, UniProt P15144).
T1 construct: purchased R&D Systems
T1 sequence (P15144 whole entry): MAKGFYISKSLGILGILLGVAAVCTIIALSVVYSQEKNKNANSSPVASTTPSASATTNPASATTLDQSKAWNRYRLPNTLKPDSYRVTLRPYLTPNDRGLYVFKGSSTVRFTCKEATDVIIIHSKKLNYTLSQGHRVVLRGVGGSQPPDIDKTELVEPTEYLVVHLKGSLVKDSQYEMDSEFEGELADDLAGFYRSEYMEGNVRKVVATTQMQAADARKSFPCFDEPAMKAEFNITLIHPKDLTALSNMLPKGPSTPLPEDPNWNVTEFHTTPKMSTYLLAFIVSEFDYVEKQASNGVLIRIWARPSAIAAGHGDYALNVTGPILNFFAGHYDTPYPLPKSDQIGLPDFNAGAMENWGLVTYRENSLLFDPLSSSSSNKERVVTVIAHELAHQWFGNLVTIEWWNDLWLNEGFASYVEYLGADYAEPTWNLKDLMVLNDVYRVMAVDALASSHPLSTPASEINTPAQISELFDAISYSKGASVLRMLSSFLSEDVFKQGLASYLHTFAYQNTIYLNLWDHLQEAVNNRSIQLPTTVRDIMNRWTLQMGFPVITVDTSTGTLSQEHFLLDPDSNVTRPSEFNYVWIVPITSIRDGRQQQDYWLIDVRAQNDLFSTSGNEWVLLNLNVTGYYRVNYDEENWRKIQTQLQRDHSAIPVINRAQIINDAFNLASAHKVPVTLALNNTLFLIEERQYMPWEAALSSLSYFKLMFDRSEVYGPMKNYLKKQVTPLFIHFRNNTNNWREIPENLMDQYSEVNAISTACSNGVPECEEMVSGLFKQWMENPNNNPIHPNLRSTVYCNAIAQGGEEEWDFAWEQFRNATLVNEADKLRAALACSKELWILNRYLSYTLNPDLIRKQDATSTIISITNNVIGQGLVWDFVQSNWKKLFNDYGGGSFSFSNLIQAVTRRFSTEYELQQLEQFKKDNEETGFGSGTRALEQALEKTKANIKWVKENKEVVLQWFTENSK
The experiment in a line: Inhibition of recombinant human APN, fluorogenic substrate Ala-AMC. It is filed as biochemical. The settings on record: for mechanism of inhibition of HsAPN: from Lineweaver-Burk and Dixon plots. The text has this: (§1) Actinomycin D was purchased as a lyophilized powder from Sigma-Aldrich (Poznan, Poland), Actinomycin X2 was purchased form Adipogen (Liestal, Switzerland). Actinocine and Questiomycin A were synthesized according to a previously described procedure. Recombinant human APN and MetAP2 were purchased as a lyophilized powder from R&D Systems (Minneapolis, USA). Fluorogenic substrates Ala-AMC (L-alanine-4-methylcoumaryl-7-amide) and Met-AMC (L-methionine-4-methylcoumaryl-7-amide) were purchased from PeptaNova (Sandhausen, Germany). Spectrofluorometry was performed on a Spectra MAX Gemini EM fluorimeter (Molecular Devices, Sunnyvale, USA) in a 96-well plate format (Excitation = 355 nm, Emission = 460 nm). Calculations of the kinetic parameters were performed using the SoftMax Pro, GraphPad Prism and Microsoft Excel programs.
(§2) Recombinant human APN enzyme was dissolved in 50 mM Tris-HCl buffer (pH = 7.0) and used directly in the kinetic experiments. Recombinant human MetAP2 was obtained as a lyophilized powder from R&D Systems. The enzyme was dissolved in 100 mM Tris-maleate buffer containing 0.1 mM CoCl2, 100 mM NaCl and 0.075 % v/v albumin at pH = 7.5 and incubated for 30 minutes. After this activation, the enzyme was used directly in the kinetic experiments.
(§3) The inhibitors were screened against human APN and human MetAP2 at 37°C in the assay buffer as described above. For the steady-state measurements, the enzymes were preincubated for 30-60 min at 37°C with an inhibitor before adding the substrate (Ala-AMC, 40 μM for human APN or Met-AMC and 50 μM for MetAP2) to the wells. For the initial state measurements, the enzymes were preincubated for 15-30 min at 37°C before adding the substrate and inhibitor to the wells. The following conditions were used: (1) total volume 100 μL, (2) eight different inhibitor concentrations, and (3) enzyme concentration of 0.3 nM for human APN and 1 nM for MetAP2. The release of the AMC fluorophore was monitored. The linear portion of the progress curve was used to calculate the velocity. hPhePCH2Phe for APN and ebselen for MetAP2 were used as a positive control. The inhibition mechanism was determined from the Lineweaver-Burk and Dixon plot (Figure 2B and 2D). The IC50 values were calculated from the reaction velocity to inhibitor concentration plot fitted to the equation log[I] vs. response. The Ki values were equal to the IC50 for non-competitive inhibitors and were calculated for competitive inhibitors using the following equation: Ki = (IC50-[E]/2)/ (1 + ([S]/Km)), where the IC50 is the concentration of the inhibitor that effected 50% inhibition, [S] and Km are the substrate concentration and Michaelis constant in the absence of inhibitor, respectively, and [E] is the concentration of the enzyme.

The target of series [2] is T2, human methionine aminopeptidase type 2 (HsMetAP2) (Homo sapiens, UniProt P50579).
T2 construct: purchased R&D Systems
T2 sequence (P50579 whole entry): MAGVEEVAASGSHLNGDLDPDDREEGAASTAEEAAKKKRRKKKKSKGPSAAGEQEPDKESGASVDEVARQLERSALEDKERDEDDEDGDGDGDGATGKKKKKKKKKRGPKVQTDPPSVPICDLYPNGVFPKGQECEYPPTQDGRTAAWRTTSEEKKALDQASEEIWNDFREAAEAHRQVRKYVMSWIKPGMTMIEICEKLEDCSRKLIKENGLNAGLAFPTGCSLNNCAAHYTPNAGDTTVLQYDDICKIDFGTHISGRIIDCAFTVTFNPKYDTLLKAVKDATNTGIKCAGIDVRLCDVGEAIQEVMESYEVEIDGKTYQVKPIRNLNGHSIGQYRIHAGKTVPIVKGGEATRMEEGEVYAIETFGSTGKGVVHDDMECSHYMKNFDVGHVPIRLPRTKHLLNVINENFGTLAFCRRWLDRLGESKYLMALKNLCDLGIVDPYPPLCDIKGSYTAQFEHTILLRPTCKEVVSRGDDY
The experiment in a line: Inhibition of recombinant human MetAP2, fluorogenic substrate Met-AMC. It is filed as biochemical. Particulars: for mechanism of inhibition of HsMetAP2: from Lineweaver-Burk and Dixon plots.
Description: as §1, §2, §3

Series [3] deals with human acute B- and T-lymphoblastic leukemia, cervix carcinoma and larynx carcinoma. On the set-up: method as in PMID 12431048. Particulars: read-out: IC50 cytotoxicity; cited from earlier work.
For series [4], the system named is human leukemia cell line HL-60. The settings on record: read-out: LC50 (lethal concentration for a half of population), cytotoxicity HL-60; cited from earlier work.
Where [5] appears, read: TRIS buffer, 37°C, average with standard deviation, at least three experiments, read-out: IC50 HsAPN.
Where [6] appears, read: TRIS buffer, 37°C, calculated by Cheng-Prusoff equations for non-competitive and competitive inhibitors, average with standard deviation, at least three experiments, read-out: Ki HsAPN.
The mark [7] stands for this setting: more effective than Actinomycin D/X2.
The mark [8] stands for this setting: TRIS buffer, 37°C, average with standard deviation, at least three experiments, read-out: IC50 HsMetAP.
The mark [9] stands for this setting: TRIS buffer, 37°C, calculated by Cheng-Prusoff equations for non-competitive and competitive inhibitors, average with standard deviation, at least three experiments, read-out: Ki HsMetAP.

In the case of `Cc1c2oc3c(C)ccc(C(=O)O)c3nc-2c(C(=O)O)c(N)c1=O` [Actinocin], the results for the IC50 in series [1] (setting [5]) and in series [2] (setting [8]) were 7.25 ± 1.2 µM and 2.34 ± 0.62 µM, respectively. In addition, the Ki (commonly the dissociation constant of the complex between target and ligand, obtained from inhibition or displacement) in series [1] (setting [6]) is 6.04 ± 0.51 µM; in series [2] (setting [9]), 2.04 ± 0.23 µM. Also, the “mechanism of inhibition of HsAPN” value in series [1] was “competitive”. The “effectiveness relative to Actinomycin D/X2, HsAPN” value in series [1] (setting [7]) is “twice as effective”. The “mechanism of inhibition of HsMetAP2” value in series [2] is “competitive”. Besides, the “effectiveness relative to Actinomycin D/X2, HsMetAP2” value in series [2] (setting [7]) was “four times as effective”.
For `Cc1c2oc3c(C)ccc(C(=O)N[C@@H]4C(=O)N[C@H](C(C)C)C(=O)N5CCC[C@H]5C(=O)N(C)CC(=O)N(C)[C@@H](C(C)C)C(=O)O[C@@H]4C)c3nc-2c(C(=O)N[C@@H]2C(=O)N[C@H](C(C)C)C(=O)N3CCC[C@H]3C(=O)N(C)CC(=O)N(C)[C@@H](C(C)C)C(=O)O[C@@H]2C)c(N)c1=O` [Actinomycin D] (I: T[dV]P[Sar][NMeV] / II: T[dV]P[Sar][NMeV]; ester I:1-I:C, II:1-II:C; linker I:N-II:N via Actinocin(9to1)), in series [1], the IC50 (commonly the concentration at which inhibition is half-maximal) was 11.9 ± 1.1 µM, the Ki was found to be 11.9 ± 1.1 µM and the “mechanism of inhibition of HsAPN” value is “non-competitive”. In addition, the IC50 in series [3] is 0.001 to 0.008 µM. In addition, in series [2], the 50% inhibitory concentration (IC50) was 7.37 ± 0.56 µM, the Ki amounted to 7.37 ± 0.56 µM and the “mechanism of inhibition of HsMetAP2” value is listed as “non-competitive”.
As for `Cc1c2oc3c(C)ccc(C(=O)N[C@@H]4C(=O)N[C@H](C(C)C)C(=O)N5CCC[C@H]5C(=O)N(C)CC(=O)N(C)[C@@H](C(C)C)C(=O)O[C@@H]4C)c3nc-2c(C(=O)N[C@@H]2C(=O)N[C@H](C(C)C)C(=O)N3CC(=O)C[C@H]3C(=O)N(C)CC(=O)N(C)[C@@H](C(C)C)C(=O)O[C@@H]2C)c(N)c1=O` [Actinomycin X2, reference compound] (I: T[dV][Pro(4-oxo)][Sar][NMeV] / II: T[dV]P[Sar][NMeV]; ester I:1-I:C, II:1-II:C; linker I:N-II:N via Actinocin(1to9)), in series [1], the IC50 is 12.2 ± 1.4 µM, the Ki was found to be 12.2 ± 1.4 µM and the “mechanism of inhibition of HsAPN” value is listed as “non-competitive”. In series [2], the IC50 was 8.33 ± 0.75 µM, the Ki turned out to be 8.33 ± 0.75 µM and the “mechanism of inhibition of HsMetAP2” value is given as “non-competitive”. Moreover, the CC50 in series [4] is 0.008 µM.
As to `Nc1cc2nc3ccccc3oc-2cc1=O` [Questiomycin A], the IC50 in series [1] (setting [5]) was 63 ± 3.2 µM; in series [3], 1 to 3 µM; in series [2] (setting [8]) it was 34.9 ± 3.2 µM. Besides, the values for the Ki in series [1] (setting [6]) and in series [2] (setting [9]) were 52.5 ± 2.7 µM and 30.4 ± 3.2 µM, respectively. The “mechanism of inhibition of HsAPN” value in series [1] is listed as “competitive”. The “times less effective, HsAPN” value in series [1] (in contrast to Actinocin) came to 10 times. The “decrease in activity for HsAPN compared to the lead compound” value in series [1] (lead compound = Actinomycin D) is listed as “five-fold”. Moreover, the “mechanism of inhibition of HsMetAP2” value in series [2] is recorded as “competitive”. Further, in series [2] (in contrast to Actinocin), the “times less effective, HsMetAP2” value is 10 times. Moreover, the “decrease in activity for HsMetAP2 compared to the lead compound” value in series [2] (lead compound = Actinomycin D) is on record as “five-fold”.
